The results in this text go back to US20260159533A1, “INHIBITORS OF COMPLEMENT FACTORS AND USES THEREOF” (Annexon, Inc., priority 2022, published 2026).

This experiment has as its target T1, human C1s protein (Homo sapiens, UniProt P09871).
T1 construct: purchased R&D Systems or Complement Technologies 2060-SE or A104
T1 sequence (P09871 16-688): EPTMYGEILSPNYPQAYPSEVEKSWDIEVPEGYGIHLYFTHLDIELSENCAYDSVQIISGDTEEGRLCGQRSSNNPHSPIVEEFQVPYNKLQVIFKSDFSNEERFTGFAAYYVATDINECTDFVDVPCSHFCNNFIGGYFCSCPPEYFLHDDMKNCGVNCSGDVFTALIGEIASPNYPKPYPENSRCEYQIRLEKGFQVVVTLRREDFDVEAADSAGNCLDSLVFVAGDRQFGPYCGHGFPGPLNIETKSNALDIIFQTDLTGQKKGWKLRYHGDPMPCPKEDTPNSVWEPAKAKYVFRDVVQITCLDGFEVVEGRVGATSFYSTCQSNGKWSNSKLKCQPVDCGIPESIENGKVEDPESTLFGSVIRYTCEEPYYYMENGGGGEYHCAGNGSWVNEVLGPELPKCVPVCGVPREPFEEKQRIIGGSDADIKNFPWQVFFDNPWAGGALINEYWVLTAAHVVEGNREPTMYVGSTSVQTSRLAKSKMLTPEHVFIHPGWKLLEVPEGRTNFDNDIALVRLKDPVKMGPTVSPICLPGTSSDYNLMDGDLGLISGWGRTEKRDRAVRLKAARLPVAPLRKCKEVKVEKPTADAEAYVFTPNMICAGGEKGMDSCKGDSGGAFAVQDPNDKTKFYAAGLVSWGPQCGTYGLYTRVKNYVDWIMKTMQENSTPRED
The experiment is described as follows: recombinant C1s enzymatic assay (YLGR-Rh110-dPro substrate hydrolysis, fluorescence). Type of experiment: biochemical. The following applies: recombinant human C1s 2.5 nM, substrate YLGR-Rh110-dPro 20 μM, 15 min pre-incubation, 60 min RT; read-out: rec. hC11s pIC50 (converted). On the procedure:
Compound testing in the purified or recombinant C1s enzymatic assay C1s is a serine protease; its enzymatic activity is measured in vitro by the hydrolysis of the synthetic substrate YLGR-Rh110-dPro (Kerr F K, O'Brien G, Quinsey N S, Whisstock J C, Boyd S, de la Banda M G, Kaiserman D, Matthews A Y, Bird P I, Pike R N. Elucidation of the substrate specificity of the Cis protease of the classical complement pathway. J. Biol. Chem. (2005) 280, 39510-39514). The enzyme cleaves the substrate with the release of Rh110 which is highly fluorescent. Cis inhibitors prevent the hydrolysis of the substrate thus resulting in a decrease of the signal.
The recombinant C1s enzymatic assay is performed using the human C1s protein (R&D Systems, 2060-SE or Complement Technologies, A104). The assay buffer composition is: 50 mM HEPES pH 7.5 (Sigma, H3375), 150 mM NaCl (Sigma, S7653), 0.2% PEG 8000 (VWR, AA43443-22), 0.01% Pluronic F127 (Sigma, P2243). On the day of the experiment 0.1 mg/mL BSA (Sigma, B4287) is added fresh to the buffer. The test item stock solutions are serially diluted 1:3 or 1:4 or 1:5 with DMSO, 11-point curves, in a 384-well compound plate. Nafamostat concentration curve is always included in the assay plate as a reference control.
The assay plate is prepared by dispensing 0.25 μL from compound plate into a 384-well black assay plate (assay plate, Greiner Fluotrac 200, 781076, VWR 736-0140). The high controls are prepared dispensing in 0.25 μL DMSO in column 23, rows AH or AP and low controls with 0.25 μL of 0.1 μM Nafamostat. Cis solution is prepared as 2× of the 2.5 nM final assay concentration. The YLGR-Rh110-dPro substrate is prepared as 2× of the final assay concentration of 20 μM. 5 μL/well of 2× enzyme solution is dispensed and pre-incubated for 15 min with the compounds. The enzymatic reaction is the started with 5 μL/well of the 2× substrate solution. The plate is incubated for 60 min RT in the dark and fluorescence is measured (ex 485/em 535 nm) using an Envision (PerkinElmer) or an equivalent instrument.

Where a name gives a salt, the structure may show the parent alone.

Consider `Nc1cnnc2cc(-c3cc(B(O)O)ccc3-n3cc(C(F)F)cn3)ccc12` [Example 9, [3-(4-aminocinnolin-7-yl)-4-[4-(difluoromethyl)-1H-pyrazol-1-yl]phenyl]boronic acid], for which the IC50 is 1.74 nM. Take `COc1cc(-n2cc(C(F)F)cn2)c(-c2ccc3c(N)cnnc3c2)cc1B(O)O` [Example 29, [5-(4-aminocinnolin-7-yl)-4-[4-(difluoromethyl)-1H-pyrazol-1-yl]-2-methoxyphenyl]boronic acid formic acid salt]: the IC50 is 0.977 nM. Regarding `CC1(C)COc2cc(-n3cccn3)c(-c3ccc4c(N)cnnc4c3)cc2B(O)O1` [Example 77, 7-(1-hydroxy-3,3-dimethyl-7-pyrazol-1-yl-4H-2,5,1-benzodioxaborepin-8-yl)cinnolin-4-amine], the IC50 is 1.58 nM.

Consider `COc1cc(-c2ncc(C(F)(F)F)s2)c(-c2ccc3c(N)cnnc3c2)cc1B(O)O` [Example 83, [5-(4-aminocinnolin-7-yl)-2-methoxy-4-[5-(trifluoromethyl)thiazol-2-yl]phenyl]boronic acid], for which the IC50 is 1.23 nM.

Turning to `CC1COc2cc(-n3cccn3)c(-c3ccc4c(N)cnnc4c3)cc2B(O)O1` (single isomer, unassigned; enantiomer 1) [Example 72, 7-(1-hydroxy-3-methyl-7-pyrazol-1-yl-3,4-dihydro-2,5,1-benzodioxaborepin-8-yl)cinnolin-4-amine enantiomer 1], the IC50 is 1.7 nM. Regarding `Nc1cnnc2cc(-c3cc(B(O)O)c(OC(F)F)cc3-n3cccn3)ccc12` [Example 27, [5-(4-aminocinnolin-7-yl)-2-(difluoromethoxy)-4-(1H-pyrazol-1-yl)phenyl]boronic acid formic acid salt], the IC50 is 4.47 nM. Consider `COc1cnn(-c2ccc(B(O)O)cc2-c2ccc3c(N)cnnc3c2)c1` [Example 28, [3-(4-aminocinnolin-7-yl)-4-(4-methoxy-1H-pyrazol-1-yl)phenyl]boronic acid formic acid salt], for which the IC50 is 2.19 nM.

For the compound `COc1cc(-n2cccn2)c(-c2ccc3c(N)cnnc3c2)cc1B(O)O` [Example 23, [5-(4-aminocinnolin-7-yl)-2-methoxy-4-(1H-pyrazol-1-yl)phenyl]boronic acid], the IC50 is 1.07 nM. Consider `COc1cc(-n2cc(OC(F)(F)F)cn2)c(-c2ccc3c(N)cnnc3c2)cc1B(O)O` [Example 85, [5-(4-aminocinnolin-7-yl)-2-methoxy-4-[4-(trifluoromethoxy)pyrazol-1-yl]phenyl]boronic acid formic acid salt], for which the IC50 is 1.2 nM.

For the compound `N#Cc1ccn(-c2ccc(B(O)O)cc2-c2ccc3c(N)cnnc3c2)n1` [Example 17, [3-(4-aminocinnolin-7-yl)-4-(3-cyano-1H-pyrazol-1-yl)phenyl]boronic acid], the IC50 is 6.31 nM.

Regarding `Nc1cnnc2cc(-c3cc(B(O)O)ccc3-c3cc(C(F)(F)F)[nH]n3)ccc12` [Example 19, [3-(4-aminocinnolin-7-yl)-4-[5-(trifluoromethyl)-1H-pyrazol-3-yl]phenyl]boronic acid], the IC50 is 34.7 nM.

For the compound `COc1cc(-c2ncc[nH]2)c(-c2ccc3c(N)cnnc3c2)cc1B(O)O` [Example 46, [5-(4-aminocinnolin-7-yl)-4-(1H-imidazol-2-yl)-2-methoxy-phenyl]boronic acid], the IC50 is 3.89 nM. As to `Nc1cnnc2cc(-c3cc(B(O)O)c(Oc4ccccc4)cc3-n3cccn3)ccc12` [Example 64, [5-(4-aminocinnolin-7-yl)-2-phenoxy-4-pyrazol-1-yl-phenyl]boronic acid formic acid salt], the IC50 was 12.3 nM. For `N#Cc1ccnn1-c1ccc(B(O)O)cc1-c1ccc2c(N)cnnc2c1` [Example 22, [3-(4-aminocinnolin-7-yl)-4-(5-cyano-1H-pyrazol-1-yl)phenyl]boronic acid], the IC50 is 0.851 nM.

For `Nc1cnnc2cc(-c3cc(B(O)O)ccc3-n3ccnn3)ccc12` [Example 16, [3-(4-aminocinnolin-7-yl)-4-(1H-1,2,3-triazol-1-yl)phenyl]boronic acid], the IC50 is 3.98 nM.
